These results are taken from patent US9963455B2, “Pyrazolo[1,5-a]pyrimidines as antiviral compounds” (Curovir AB, priority 2014, dated 2018).

Holding throughout (format): cell-based
The subject of one experiment is Enterovirus strain 71. Kind of experiment: CPE inhibition in mammalian cell culture, EV71. The note with it: for inhibition at 1 µM: EV71, Conc. 1.0 μM; for inhibition at 0.01 µM: EV71, Conc. 0.01 μM.
In another experiment the test system is Ljungan virus strain 145. The experiment is described as follows: CPE inhibition in mammalian cell culture, LV145. The note with it: Parechovirus B; for inhibition at 10 µM: LV145, Conc. 10.0 μM; for inhibition at 1 µM: LV145, Conc. 1.0 μM.
For experiment [1], the system named is coxsackie B virus strain 5. The experiment is described as follows: CPE inhibition in mammalian cell culture, Cox-B5. The note with it: read-out: % inh.
Experiment [2] deals with coxsackie B virus strain 3. Kind of experiment: CPE inhibition in mammalian cell culture, Cox-B3. The note with it: read-out: % inh.
Another experiment deals with Ljungan virus strain 012. Kind of experiment: CPE inhibition in mammalian cell culture, LV012. The note with it: Parechovirus B, read-out: % inh.; for inhibition at 10 µM: LV012, Conc. 10 μM.
The next experiment has as its system Enterovirus strain 30. The experiment is described as follows: CPE inhibition in mammalian cell culture, EV30.
Experiment [3] has as its system coxsackie B virus strain 1. Kind of experiment: CPE inhibition in mammalian cell culture, Cox-B1. Conditions: read-out: % inh.

In turn, `Cc1cc(NCc2cccnc2)n2nc(C)c(-c3ccc(Cl)cc3)c2n1` [Ex. 45, 3-(4-chlorophenyl)-2,5-dimethyl-N-(3-pyridylmethyl)pyrazolo[1,5-a]pyrimidin-7-amine] gave an inhibition at 1 µM in the experiment with Enterovirus strain 71 of 100%.

`COc1ccc(-c2c(C)nn3c(Nc4ccc(C(C)C)cc4)cc(C)nc23)cc1OC` [Ex. 60, 3-(3,4-dimethoxyphenyl)-N-(4-isopropylphenyl)-2,5-dimethyl-pyrazolo[1,5-a]pyrimidin-7-amine] registered an inhibition at 1 µM with Enterovirus strain 71 of 69%.

In the experiment on Ljungan virus strain 145, `COc1ccc(-c2c(C)nn3c(NCCc4ccccn4)cc(C)nc23)cc1` [Ex. 68, 3-(4-methoxyphenyl)-2,5-dimethyl-N-[2-(2-pyridyl)ethyl]pyrazolo[1,5-a]pyrimidin-7-amine] displayed an inhibition at 10 µM of 86%.

As for `Cc1cc(NC2CCCC2)n2nc(C)c(-c3ccc(F)cc3)c2n1` [Ex. 38, N-cyclopentyl-3-(4-fluorophenyl)-2,5-dimethyl-pyrazolo[1,5-a]pyrimidin-7-amine], the inhibition at 10 µM in the experiment with Ljungan virus strain 145 amounted to 84%.

Regarding `Cc1ccc(CNc2cc(C)nc3c(-c4ccc(O)c(O)c4)c(C)nn23)cc1` [Ex. 110, 4-[2,5-dimethyl-7-(p-tolylmethylamino)pyrazolo[1,5-a]pyrimidin-3-yl]benzene-1,2-diol], the inhibition at 1 µM in experiment [1] is 72%.

Consider `Cc1cc(NCc2ccc(F)cc2)n2nc(C)c(-c3ccc4c(c3)OCO4)c2n1` [Ex. 102, 3-(1,3-benzodioxol-5-yl)-N-[(4-fluorophenyl)methyl]-2,5-dimethyl-pyrazolo[1,5-a]pyrimidin-7-amine], for which the inhibition at 1 µM in experiment [2] was 100%.

On to `Cc1cc(NCc2ccc(F)cc2)n2nc(C)c(-c3ccc(F)c(F)c3)c2n1` [Ex. 106, 3-(3,4-difluorophenyl)-N-[(4-fluorophenyl)methyl]-2,5-dimethyl-pyrazolo[1,5-a]pyrimidin-7-amine], for which the inhibition at 10 µM with Ljungan virus strain 145 amounted to 100%.

Turning to `COc1ccc(-c2c(C)nn3c(Nc4ccncc4)cc(C)nc23)cc1OC` [Ex. 74, 3-(3,4-dimethoxyphenyl)-2,5-dimethyl-N-(4-pyridyl)pyrazolo[1,5-a]pyrimidin-7-amine], the inhibition at 10 µM with Ljungan virus strain 012 came out at 55%.

`COc1cc(-c2c(C)nn3c(NCc4ccc(F)cc4)cc(C)nc23)cc(OC)c1OC` [Ex. 105, N-[(4-fluorophenyl)methyl]-2,5-dimethyl-3-(3,4,5-trimethoxyphenyl)pyrazolo[1,5-a]pyrimidin-7-amine]: the inhibition at 10 µM with Enterovirus strain 30 (EV30, Conc. 10 μM, read-out: % inh.) came to 67%.

As to `Cc1ccc(-c2c(C)nn3c(NCc4cccnc4)cc(C)nc23)cc1` [Ex. 34, 2,5-dimethyl-3-(p-tolyl)-N-(3-pyridylmethyl)pyrazolo[1,5-a]pyrimidin-7-amine], the inhibition at 1 µM in the experiment on Enterovirus strain 71 was found to be 100%.

Regarding `COc1ccc(-c2c(C)nn3c(NCc4ccc(S(N)(=O)=O)cc4)cc(C)nc23)cc1OC` [Ex. 97, 4-[[[3-(3,4-dimethoxyphenyl)-2,5-dimethyl-pyrazolo[1,5-a]pyrimidin-7-yl]amino]methyl]benzenesulfonamide], the inhibition at 0.1 µM in the experiment on Enterovirus strain 71 (EV71, Conc. 0.1 μM) is 94%.

In turn, `Cc1cc(NCc2ccccc2)n2nc(C)c(-c3ccc(F)cc3)c2n1` [Ex. 13, N-benzyl-3-(4-fluorophenyl)-2,5-dimethyl-pyrazolo[1,5-a]pyrimidin-7-amine] registered an inhibition at 1 µM in the experiment on Enterovirus strain 71 of 66%.

As for `COc1ccc(-c2c(C)nn3c(NCc4ccc(C)cc4)cc(C)nc23)cc1F` [Ex. 108, 3-(3-fluoro-4-methoxy-phenyl)-2,5-dimethyl-N-(p-tolylmethyl)pyrazolo[1,5-a]pyrimidin-7-amine], the inhibition at 1 µM in experiment [3] was found to be 100%.

On to `COc1ccc(-c2c(C)nn3c(NCCc4cccs4)cc(C)nc23)cc1OC` [Ex. 88, 3-(3,4-dimethoxyphenyl)-2,5-dimethyl-N-[2-(2-thienyl)ethyl]pyrazolo[1,5-a]pyrimidin-7-amine], for which the inhibition at 1 µM in the experiment with Enterovirus strain 30 (EV30, Conc. 1.0 μM, read-out: % inh.) was 88%.

With `COc1ccc(-c2c(C)nn3c(NCc4ccc(N(C)C)cc4)cc(C)nc23)cc1OC` [Ex. 78, 3-(3,4-dimethoxyphenyl)-N-[(4-dimethylaminophenyl)methyl]-2,5-dimethyl-pyrazolo[1,5-a]pyrimidin-7-amine], the inhibition at 0.1 µM in experiment [3] came out at 94%.

In the case of `COc1ccc(-c2c(C)nn3c(Nc4ccc(C)c(Cl)c4)cc(C)nc23)cc1OC` [Ex. 55, N-(3-chloro-4-methyl-phenyl)-3-(3,4-dimethoxyphenyl)-2,5-dimethyl-pyrazolo[1,5-a]pyrimidin-7-amine], the inhibition at 1 µM with Ljungan virus strain 145 worked out at 41%.

As for `COc1ccc(-c2c(C)nn3c(Nc4cc(C)cc(C)c4)cc(C)nc23)cc1OC` [Ex. 56, 3-(3,4-dimethoxyphenyl)-N-(3,5-dimethylphenyl)-2,5-dimethyl-pyrazolo[1,5-a]pyrimidin-7-amine], the inhibition at 1 µM with Ljungan virus strain 145 was found to be 61%.

For `COc1ccc(-c2c(C)nn3c(NCc4ccc(C(C)(C)C)cc4)cc(C)nc23)cc1OC` [Ex. 86, N-[(4-tert-butylphenyl)methyl]-3-(3,4-dimethoxyphenyl)-2,5-dimethyl-pyrazolo[1,5-a]pyrimidin-7-amine], the inhibition at 10 µM in the experiment with Ljungan virus strain 012 worked out at 48%.

In the experiment with Ljungan virus strain 145, `COc1ccc(CCNc2cc(C)nc3c(-c4ccc(F)cc4)cnn23)cc1OC` [Ex. 19, N-[2-(3,4-dimethoxyphenyl)ethyl]-3-(4-fluorophenyl)-5-methyl-pyrazolo[1,5-a]pyrimidin-7-amine] returned an inhibition at 10 µM of 34%.

Consider `COc1ccc(-c2c(C)nn3c(NC4Cc5ccccc5C4)cc(C)nc23)cc1OC` [Ex. 91, 3-(3,4-dimethoxyphenyl)-N-indan-2-yl-2,5-dimethyl-pyrazolo[1,5-a]pyrimidin-7-amine], for which the inhibition at 1 µM in experiment [1] turned out to be 75%.

As to `COc1ccc(-c2c(C)nn3c(NCCc4ccccn4)cc(C)nc23)cc1OC` [Ex. 85, 3-(3,4-dimethoxyphenyl)-2,5-dimethyl-N-[2-(2-pyridyl)ethyl]pyrazolo[1,5-a]pyrimidin-7-amine], in experiment [3], the inhibition at 1 µM was determined as 98%.

`COc1ccc(-c2c(C)nn3c(NCc4ccccc4)cc(C)nc23)cc1OC` [Ex. 40, N-benzyl-3-(3,4-dimethoxyphenyl)-2,5-dimethyl-pyrazolo[1,5-a]pyrimidin-7-amine]: in the experiment on Enterovirus strain 71, the inhibition at 0.01 µM came out at 100%.

Consider `COc1ccc(-c2c(C)nn3c(NCc4cccc5ccccc45)cc(C)nc23)cc1OC` [Ex. 96, 3-(3,4-dimethoxyphenyl)-2,5-dimethyl-N-(1-naphthylmethyl)pyrazolo[1,5-a]pyrimidin-7-amine], for which, in experiment [3], the inhibition at 0.1 µM was 100%.

Take `COc1ccc(-c2c(C)nn3c(NCc4ccc(OC(F)(F)F)cc4)cc(C)nc23)cc1OC` [Ex. 76, 3-(3,4-dimethoxyphenyl)-2,5-dimethyl-N-[[4-(trifluoromethoxy)phenyl]methyl]pyrazolo[1,5-a]pyrimidin-7-amine]: the inhibition at 1 µM in experiment [2] amounted to 100%.

On to `Cc1cc(NCc2cccnc2)n2nc(C)c(-c3ccc(F)cc3)c2n1` [Ex. 36, 3-(4-fluorophenyl)-2,5-dimethyl-N-(3-pyridylmethyl)pyrazolo[1,5-a]pyrimidin-7-amine], for which the inhibition at 1 µM in experiment [1] was found to be 97%.

Take `COc1ccc(-c2c(C)nn3c(Nc4ncc(C)s4)cc(C)nc23)cc1OC` [Ex. 93, N-[3-(3,4-dimethoxyphenyl)-2,5-dimethyl-pyrazolo[1,5-a]pyrimidin-7-yl]-5-methyl-thiazol-2-amine]: the inhibition at 100 µM in the experiment with Ljungan virus strain 012 (LV012, Conc. 100 μM) worked out at 42%.

Consider `COc1ccc(-c2cnn3c(NCc4ccc(F)cc4)cc(C)nc23)cc1OC` [Ex. 99, 3-(3,4-dimethoxyphenyl)-N-[(4-fluorophenyl)methyl]-5-methyl-pyrazolo[1,5-a]pyrimidin-7-amine], for which the inhibition at 0.1 µM in experiment [2] was 100%.

Consider `COc1ccc(-c2c(C)nn3c(NCc4ccc(S(C)(=O)=O)cc4)cc(C)nc23)cc1OC` [Ex. 84, 3-(3,4-dimethoxyphenyl)-2,5-dimethyl-N-[(4-methylsulfonylphenyl)methyl]pyrazolo[1,5-a]pyrimidin-7-amine], for which, in experiment [2], the inhibition at 0.1 µM came out at 84%.

Regarding `COc1cccc(Nc2cc(C)nc3c(-c4ccc(OC)c(OC)c4)c(C)nn23)c1` [Ex. 61, 3-(3,4-dimethoxyphenyl)-N-(3-methoxyphenyl)-2,5-dimethyl-pyrazolo[1,5-a]pyrimidin-7-amine], in the experiment on Ljungan virus strain 145, the inhibition at 10 µM was 85%.

Compound `COc1ccc(-c2c(C)nn3c(NCc4ccccn4)cc(C)nc23)cc1OC` [Ex. 35, 3-(3,4-dimethoxyphenyl)-2,5-dimethyl-N-(2-pyridylmethyl)pyrazolo[1,5-a]pyrimidin-7-amine] returned an inhibition at 0.1 µM in the experiment with Enterovirus strain 30 (EV30, Conc. 0.1 μM) of 88%.

`COc1ccc(-c2c(C)nn3c(Nc4ccc(C)c(C)c4)cc(C)nc23)cc1OC` [Ex. 52, 3-(3,4-dimethoxyphenyl)-N-(3,4-dimethylphenyl)-2,5-dimethyl-pyrazolo[1,5-a]pyrimidin-7-amine] yielded an inhibition at 10 µM with Ljungan virus strain 145 of 63%.

In the experiment on Ljungan virus strain 145, `CCc1nn2c(NCCc3ccc(OC)c(OC)c3)cc(C)nc2c1-c1ccccc1` [Ex. 30, N-[2-(3,4-dimethoxyphenyl)ethyl]-2-ethyl-5-methyl-3-phenyl-pyrazolo[1,5-a]pyrimidin-7-amine] gave an inhibition at 10 µM of 100%.

In the case of `COc1ccc(-c2c(C)nn3c(NCc4cc[n+]([O-])cc4)cc(C)nc23)cc1OC` [Ex. 83, 3-(3,4-dimethoxyphenyl)-2,5-dimethyl-N-[(1-oxidopyridin-1-ium-4-yl)methyl]pyrazolo[1,5-a]pyrimidin-7-amine], the inhibition at 0.01 µM in the experiment with Enterovirus strain 71 turned out to be 82%.

As for `COc1ccc(-c2c(C)nn3c(Nc4cccc(Cl)c4)cc(C)nc23)cc1OC` [Ex. 51, N-(3-chlorophenyl)-3-(3,4-dimethoxyphenyl)-2,5-dimethyl-pyrazolo[1,5-a]pyrimidin-7-amine], the inhibition at 10 µM in the experiment on Ljungan virus strain 145 came out at 94%.
